Source: article PMC8839189, “Bis-Amiridines as Acetylcholinesterase and Butyrylcholinesterase Inhibitors: N-Functionalization Determines the Multitarget Anti-Alzheimer’s Activity Profile” (Molecules, 2022)
Where “and” joins values, the source holds several entries; their conditions need not be identical. Equal entries are not always repeated. Where two headings read alike, the source gives them in different places.

Tests used:
β-amyloid (1–42) (Aβ42) = β-amyloid (1–42) (Aβ42) (Homo sapiens, UniProt P05067); assay: Inhibition of Aβ42 self-aggregation, Thioflavin T fluorescence; type: biochemical; conditions: Aβ42 50 µM, compound 100 µM
Sequence of β-amyloid (1–42) (Aβ42) (P05067 672-713): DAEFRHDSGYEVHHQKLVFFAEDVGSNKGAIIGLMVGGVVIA
Protocol: The inhibitory effect of the test compounds toward Aβ42 self-aggregation was determined using the Thioflavin T (ThT) fluorescence method with minor modifications. […] Therefore, the decrease in ThT fluorescence correlates with the activity of studied compounds to inhibit the formation of amyloid aggregates.
A total of 1 mg of lyophilized HFIP-pretreated Aβ42 from rPeptide (Watkinsville, GA, USA) was dissolved in DMSO to obtain a stable initial solution ([Aβ42] = 500 μM), then it was aliquoted and stored at −20 °C.
Then, the samples were incubated for 24 h at 37 °C without stirring in the absence (base level of Aβ42 self-aggregation, control) or presence of the test compounds. Myricetin and propidium iodide were used as references (positive controls). All compounds were used at a concentration of 100 µM. […] Analyses were performed with a FLUOStar Optima microplate reader (LabTech, Ortenberg, Germany). […] Each assay was run in triplicate.

human erythrocyte AChE [1] = target: T1, human erythrocyte AChE (Homo sapiens, UniProt P22303); assay: biochemical
T1 sequence (P22303 other isoform, or with tags, fused parts or gaps): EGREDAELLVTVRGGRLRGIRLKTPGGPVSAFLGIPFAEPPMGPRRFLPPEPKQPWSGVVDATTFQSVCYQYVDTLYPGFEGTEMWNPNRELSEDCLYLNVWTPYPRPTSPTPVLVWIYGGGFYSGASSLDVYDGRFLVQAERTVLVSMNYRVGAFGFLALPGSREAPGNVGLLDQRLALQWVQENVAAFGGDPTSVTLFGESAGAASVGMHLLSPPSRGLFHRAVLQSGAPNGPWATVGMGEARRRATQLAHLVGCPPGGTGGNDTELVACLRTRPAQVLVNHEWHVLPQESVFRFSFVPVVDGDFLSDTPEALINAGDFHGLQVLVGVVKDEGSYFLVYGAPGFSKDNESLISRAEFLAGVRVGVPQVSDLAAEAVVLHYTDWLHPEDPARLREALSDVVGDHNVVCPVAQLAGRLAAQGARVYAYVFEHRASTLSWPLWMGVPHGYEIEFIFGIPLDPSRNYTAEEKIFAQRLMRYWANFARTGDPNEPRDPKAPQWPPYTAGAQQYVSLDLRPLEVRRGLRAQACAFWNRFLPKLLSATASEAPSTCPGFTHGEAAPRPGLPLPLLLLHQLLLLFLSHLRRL

[2] = Ferric reducing antioxidant power (FRAP) assay; parameters: key: ratio of Trolox to test compound concentration giving same FRAP effect; conditions: Trolox equivalents; compound concentration 20 µM
Protocol: The ferric reducing antioxidant power (FRAP) assay proposed by Benzie and Strain [106, 107] was modified to be performed in 96-well microplates, as described in detail in [32]. The FRAP reagent contained 2.5 mL of 10 mM TPTZ (2,4,6-tris(2-pyridyl)-s-triazine, Sigma-Aldrich) solution in 40 mM HCl, 2.5 mL of 20 mM FeCl3 (Sigma-Aldrich) in distilled water and 25 mL of 0.3 M acetate buffer (pH 3.6). Aliquots of 10 µL of the tested compound (compounds 3, 5 or reference substance) dissolved in DMSO (0.5 mM) were placed in quadruplicate. Absorbance was measured at the wavelength of 593 nm after 60-min incubation at 37 °C. In each case, Trolox was used as a reference compound to obtain the standard curve and value was calculated with respect to the activity of Trolox and expressed as Trolox equivalents (TE)—the values calculated as the ratio of the concentrations of Trolox and the test compound, resulting in the same effect on ferric reducing activity.

equine serum BChE = target: T2, equine serum BChE (Equus caballus, UniProt P81908); assay: biochemical; conditions: n = 3
T2 construct: we used human erythrocyte AChE, equine serum BChE, and porcine liver CES; purchased Sigma-Aldrich; host or cells: equine serum
T2 sequence (P81908 whole entry): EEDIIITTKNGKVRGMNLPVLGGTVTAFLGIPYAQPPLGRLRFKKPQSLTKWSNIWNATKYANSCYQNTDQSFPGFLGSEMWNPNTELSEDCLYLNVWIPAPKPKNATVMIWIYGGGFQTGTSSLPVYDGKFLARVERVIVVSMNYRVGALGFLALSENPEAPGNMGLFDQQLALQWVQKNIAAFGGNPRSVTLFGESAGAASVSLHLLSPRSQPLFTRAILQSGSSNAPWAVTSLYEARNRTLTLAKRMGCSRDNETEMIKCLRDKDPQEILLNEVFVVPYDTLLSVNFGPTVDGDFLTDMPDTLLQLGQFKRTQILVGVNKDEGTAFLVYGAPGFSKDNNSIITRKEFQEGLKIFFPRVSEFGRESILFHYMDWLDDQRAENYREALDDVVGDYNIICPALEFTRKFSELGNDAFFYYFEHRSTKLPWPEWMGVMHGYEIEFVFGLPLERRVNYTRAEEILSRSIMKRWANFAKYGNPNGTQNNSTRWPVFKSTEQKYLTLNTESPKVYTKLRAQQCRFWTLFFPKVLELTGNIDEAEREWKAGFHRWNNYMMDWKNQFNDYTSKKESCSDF

EeAChE PAS = target: T3, EeAChE PAS (Electrophorus electricus, UniProt O42275); assay: Propidium iodide displacement from the PAS of EeAChE; type: binding, Electric eel; conditions: compound concentration 20 µM
T3 construct: purchased Sigma-Aldrich type VI-S
T3 sequence (O42275 24-633): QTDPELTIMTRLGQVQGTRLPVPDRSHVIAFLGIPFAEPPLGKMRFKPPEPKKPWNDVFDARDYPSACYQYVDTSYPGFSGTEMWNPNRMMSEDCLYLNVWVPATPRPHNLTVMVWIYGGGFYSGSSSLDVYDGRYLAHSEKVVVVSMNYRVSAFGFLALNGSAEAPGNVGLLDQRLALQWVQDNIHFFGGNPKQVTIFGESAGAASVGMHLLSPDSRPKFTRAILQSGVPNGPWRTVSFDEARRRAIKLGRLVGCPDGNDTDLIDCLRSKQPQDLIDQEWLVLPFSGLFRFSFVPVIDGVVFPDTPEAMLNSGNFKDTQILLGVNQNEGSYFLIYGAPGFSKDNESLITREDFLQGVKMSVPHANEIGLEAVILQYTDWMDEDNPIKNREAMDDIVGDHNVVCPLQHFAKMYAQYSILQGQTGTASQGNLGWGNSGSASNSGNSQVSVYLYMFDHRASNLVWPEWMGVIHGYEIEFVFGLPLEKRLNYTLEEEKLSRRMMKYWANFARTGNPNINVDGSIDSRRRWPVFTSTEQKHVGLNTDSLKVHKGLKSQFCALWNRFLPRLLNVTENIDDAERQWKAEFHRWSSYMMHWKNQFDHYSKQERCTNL
Protocol: The enzyme was Electric eel AChE (EeAChE type VI-S, lyophilized powder, Sigma-Aldrich). We selected this source of AChE for consistency with our other reports and because of the purity, specific activity, and lower cost compared to human AChE.
The assay is based on the high level of fluorescence intensity of propidium iodide bound with AChE decreasing in the presence of test compounds that competitively displace propidium iodide from the AChE PAS [25, 27]. Specificially, EeAChE ([…] final concentration) is incubated with the test compound (20 μM in 1 mM Tris-HCl buffer pH 8.0, 25 °C, for 15 min). Propidium iodide (final concentration 8 μM) is then added for a further 15-min incubation and the fluorescence spectrum is taken (530 nm (excitation) and 600 nm (emission)). The same concentration of propidium iodide in the Tris-HCI buffer was used as the blank. Triplicate determinations were recorded from a FLUOStar Optima microplate reader and results calculated via the following equation:% Displacement = 100 − (IFAChE+ Propidium + inhibitor/IFAChE + Propidium) × 100(1) where IFAChE + Propidium = fluorescence intensity of propidium iodide associated with AChE in the absence of the test compound (taken as 100%), and IFAChE + Propidium + inhibitor = fluorescence intensity of propidium iodide associated with AChE in the presence of the test compound.

porcine liver CES = assay: CES inhibition, 4-NPA substrate; type: biochemical; conditions: compound concentration 20 µM
[3] = ABTS radical cation scavenging activity assay; conditions: 1 h incubation; for IC50: ABTS•+ 100 μM; for ABTS•+-Scavenging Activity, TEAC: Trolox equivalent antioxidant capacity
Protocol: Radical scavenging activity of the compounds was assessed using the ABTS radical cation (ABTS^•+) decolorization assay with modifications, described in detail in [30, 32]. ABTS (2,2′-azino-bis-(3-ethylbenzothiazoline-6-sulfonic acid)) was purchased from Tokyo Chemical Industry Co., Ltd. (Tokyo, Japan), potassium persulfate (dipotassium peroxodisulfate), Trolox (6-hydroxy-2,5,7,8-tetramethylchroman-2-carboxylic acid), HPLC-grade ethanol, and DMSO were obtained from Sigma-Aldrich. All tested compounds were dissolved in DMSO.
The reaction was monitored for 1 h with an interval of 1–10 min. Data are given for 1 h of incubation of compounds with ABTS^•+ (100 μM final concentration). The reduction in absorbance was measured spectrophotometrically at 734 nm using xMark UV/VIS microplate spectrophotometer (Bio-Rad, Hercules, CA, USA). Ethanol blanks were run in each assay. Values were obtained from three replicates of each sample and three independent experiments. Standard antioxidant Trolox was used as a reference compound. Trolox equivalent antioxidant capacity (TEAC) values were determined as the ratio between the slopes obtained from the linear correlation of the ABTS radical absorbance with the concentrations of tested compounds and Trolox.

human erythrocyte AChE [4] = target: T1, human erythrocyte AChE; conditions: 5d (m = 5) relative to 5a (m = 2)
BChE = target: T4, BChE (Equus caballus, UniProt P81908); assay: Kinetic study of BChE inhibition (Lineweaver-Burk); type: biochemical
T4 construct: we used human erythrocyte AChE, equine serum BChE, and porcine liver CES; purchased Sigma-Aldrich; host or cells: equine serum
T4 sequence (P81908 whole entry): as the sequence (P81908 whole entry) above
Protocol: (§1) We assessed the mechanisms of AChE and BChE inhibition by performing a thorough analysis of enzyme kinetics. After a 5 min incubation at 25 °C (for temperature equilibration) with three increasing concentrations of inhibitor and six decreasing substrate concentrations, the residual enzyme activity was measured as described above for enzymatic assays.

AChE = target: T5, AChE (Homo sapiens, UniProt P22303); assay: Kinetic study of AChE inhibition (Lineweaver-Burk); type: biochemical
T5 construct: we used human erythrocyte AChE, equine serum BChE, and porcine liver CES; purchased Sigma-Aldrich; host or cells: human erythrocytes
T5 sequence (P22303 other isoform, or with tags, fused parts or gaps): as the sequence (P22303 other isoform, or with tags, fused parts or gaps) above
Protocol: as §1

[5] = mean ± SEM, read-out: Equine Serum BChE, IC50

Row | Structure (SMILES) | Inhibition of Aβ42 Self-Aggregation (β-amyloid (1–42) (Aβ42)) [%] | IC50 (human erythrocyte AChE [1]) [µM] | FRAP, TE [2] | IC50 (equine serum BChE; [5]) | Displacement of Propidium from EeAChE PAS (EeAChE PAS) [%] | Porcine Liver CES, (%) inhibition (porcine liver CES) | IC50 [3] [µM] | ABTS•+-Scavenging Activity, TEAC [3] | inhibition at 100 µM (β-amyloid (1–42) (Aβ42)) [%] | IC50 (equine serum BChE; MEAN ± SEM, read-out: IC50 for BChE inhibition (Figure S25)) [nM] | enhancement of anti-AChE activity, fold (human erythrocyte AChE [4]) [fold] | type of BChE inhibition (BChE; Lineweaver–Burk plots) | Ki (BChE; competitive component) [nM] | αKi, BChE (BChE; non-competitive component) [µM] | αKi, the non-competitive component, AChE (AChE) [µM] | type of AChE inhibition (AChE; Lineweaver–Burk plots) | Ki (AChE; read-out: Ki, the competitive component, AChE) [nM]
1 | CC[N+](C)(CC)CCC[n+]1c(-c2ccccc2)c2cc(N)ccc2c2ccc(N)cc21.[I-].[I-] [Propidium iodide, reference compound] | 90.7 ± 7.1 | – | – | – | – | – | – | – | – | – | – | – | – | – | – | – | –
2 | S=C(NCCCCNC(=S)Nc1c2c(nc3c1CCC3)CCCC2)Nc1c2c(nc3c1CCC3)CCCC2 [Compound 5c] | – | 7.53 ± 0.59 | 0.35 ± 0.02 | 802 ± 81 nM | 10.0 ± 0.8 | 9.6 ± 0.8% | 9.7 ± 0.6 | 1.8 ± 0.05 | 17.2 ± 1.5 | – | – | – | – | – | – | – | –
3 | S=C(NCCCCCCCNC(=S)Nc1c2c(nc3c1CCC3)CCCC2)Nc1c2c(nc3c1CCC3)CCCC2 [Compound 5f] | – | 6.28 ± 0.46 | 0.55 ± 0.01 | 1180 ± 80 nM | 2.5 ± 0.2 | 5.8 ± 0.3% | 12.4 ± 0.8 | 1.2 ± 0.05 | 3.7 ± 0.3 | – | – | – | – | – | – | – | –
4 | O=[N+]([O-])c1ccc(OP(=O)(O)Oc2ccc([N+](=O)[O-])cc2)cc1 [BNPP, bis-4-nitrophenyl phosphate, reference compound] | – | – | – | – | – | 99.1 ± 0.93 ^3% | – | – | – | – | – | – | – | – | – | – | –
5 | O=C(CNCCCNCC(=O)Nc1c2c(nc3c1CCC3)CCCC2)Nc1c2c(nc3c1CCC3)CCCC2 [Compound 3b] | – | 2.91 ± 0.74 | 0.05 ± 0.01 | 128 ± 2 nM | 14.7 ± 1.2 | 4.4 ± 0.5% | > 200 | 0.05 ± 0.003 | – | – | – | – | – | – | – | – | –
6 | O=C(CNCCCCNCC(=O)Nc1c2c(nc3c1CCC3)CCCC2)Nc1c2c(nc3c1CCC3)CCCC2 [Compound 3c] | – | 1.46 ± 0.03 | – | 67 ± 1 nM | 17.7 ± 1.4 | 0.8 ± 0.2% | ~200 | 0.10 ± 0.005 | – | 69.6 | – | – | – | – | – | – | –
7 | S=C(NCCCCCCNC(=S)Nc1c2c(nc3c1CCC3)CCCC2)Nc1c2c(nc3c1CCC3)CCCC2 [Compound 5e] | – | 4.08 ± 0.46 | 0.49 ± 0.01 | 769 ± 20 nM | 11.1 ± 0.9 | 10.3 ± 1.0% | 10.9 ± 0.7 | 1.5 ± 0.07 | 14.3 ± 1.1 | – | – | – | – | – | – | – | –
8 | S=C(NCCCCCNC(=S)Nc1c2c(nc3c1CCC3)CCCC2)Nc1c2c(nc3c1CCC3)CCCC2 [Compound 5d] | – | 4.01 ± 0.13 | 0.45 ± 0.03 | 760 nM and 758 nM | 11.2 ± 1.0 | 12.8 ± 1.1% | 10.9 ± 0.7 | 1.6 ± 0.06 | 12.8 ± 1.1 | – | 24 | mixed-type inhibition | 340 ± 12 | 1.85 ± 0.06 | 7.75 ± 0.11 | mixed-type inhibition | 1180 ± 80
